Entries after “also recorded” stand apart in the source; their conditions may differ.
Key:
Type in all cases: physicochemical
[1] = Thermodynamic aqueous solubility; conditions: water, after 24 hours equilibration
Method: Aqueous solubility was determined by suspending sufficient compound in 0.5 ml deionized water to give a maximum final concentration of 40 mg/mi of the parent free-form of the compound. The suspension was equilibrated at 25° C., on a Heidolph plate shaker set to 750 rpm for 24 hours. After equilibration, the appearance was noted and the pH of the saturated solution was measured. Samples forming suspensions were centrifuged for 4 min at 13,500 rpm. Samples were then filtered through a glass fiber C filter (particle retention 1.2 μm), before dilution with H2O as appropriate.
Quantitation was by HPLC (see Table 2 for parameters) with reference to a standard solution of approximately 0.15 mg/ml in DMSO. Different volumes of the standard, diluted and undiluted sample solutions were injected. The solubility was calculated using the peak areas determined by integration of the peak found at the same retention time as the principal peak in the standard injection. Analysis was performed on an AgilentHPl 100/Infinity II 1260 series system equipped with a diode array detector and using OpenLAB software.

[2] = Gravimetric Vapour Sorption (GVS)
Method: Sorption isotherms were obtained using a SMS DVS Intrinsic moisture sorption analyser, controlled by DVS Intrinsic Control software. The sample temperature was maintained at 25° C. by the instrument controls. The humidity was controlled by mixing streams of dry and wet nitrogen, with a total flow rate of 200 ml/min. The relative humidity was measured by a calibrated Rotronic probe (dynamic range of 1.0-100% RH), located near the sample. The weight change, (mass relaxation) of the sample as a function of % RH was constantly monitored by a microbalance (accuracy ±0.005 mg). Typically, 20-30 mg of sample was placed in a tared mesh stainless steel basket under ambient conditions. The sample was loaded and unloaded at 40% RH and 25° C. (typical room conditions). A moisture sorption isotherm was performed as outlined below (2 scans per complete cycle). The standard isotherm was performed at 25° C. at 10% RH intervals over a 0-90% RH range. Typically, a double cycle (4 scans) was carried out. Data analysis was carried out within Microsoft Excel using the DVS Analysis Suite. [table]

[3] = Static storage stability at elevated temperature/humidity (XRPD, HPLC purity)
Method: XRPD diffractograms were collected on a Bruker D8 diffractometer using Cu Kα, radiation (40 kV, 40 mA) and a 0-20 goniometer fitted with a Ge monochromator. The incident beam passes through a 2.0 mm divergence slit followed by a 0.2 mm anti-scatter slit and knife edge. The diffracted beam passes through an 8.0 mm receiving slit with 2.5° Soller slits followed by the Lynxeye Detector. The software used for data collection and analysis was Diffrac Plus XRD Commander and Diffrac Plus EVA respectively.
XRPD diffractograms were collected on a PANalytical Empyrean diffractometer using Cu Kα, radiation (45 kV, 40 mA) in transmission geometry. A 0.5° slit, 4 mm mask and 0.04 rad Soller slits with a focusing mirror were used on the incident beam. A PIXcel3D detector, placed on the diffracted beam, was fitted with a receiving slit and 0.04 rad Soller slits. The software used for data collection was X'Pert Data Collector using X'Pert Operator Interface. The data were analyzed and presented using Diffrac Plus EVA or HighScore Plus.
Purity analysis was performed on an AgilentHP1100/Infinity 111260 series system equipped with a diode array detector and using OpenLAB software.

[4] = Competitive slurries of anhydrous and hydrated forms in different water activity
Method: Competitive slurries of the anhydrous and hydrated forms in different water activity at 50° C. and 5° C. were used to determine the thermodynamic stability relationships.

[5] = physchem; conditions: thermodynamic from solid
From the text: There was insufficient residue to characterize these further.

[6] = 7 days / 1 week at 25° C./97% RH
[7] = 7 days / 1 week at 40° C./75% RH

pH of saturated solution [1]: (pH = 3.2)
Hygroscopicity by GVS ([2]; 25° C.): RH: Slightly hygroscopic.
Purity after static storage ([3]; 14 weeks at 25° C./97% RH): 93.5%
Solid form by XRPD after static storage ([3]; 14 weeks at 25° C./97% RH): Mesylate Form 1
Purity after static storage ([3]; 14 weeks at 40° C./75% RH): Form 2 (94.7% purity)
HPLC purity after static storage [3, 6]: no significant drop in purity
HPLC purity after static storage [3, 7]: no significant drop in purity
Water activity up to which the form was the most stable ([4]; competitive slurries at 5° C.): ≥ 0.3 aw
Water activity up to which the form was the most stable ([4]; competitive slurries at 50° C.): 0.6 aw
solubility thermodynamic ([5]; fassgf or other biorelevant, Thermodynamic solubility in FaSSGF): 21000 µg/mL
solubility thermodynamic ([5]; fassif, Thermodynamic solubility in FaSSIF): 1900 µg/mL
solubility thermodynamic ([5]; fessif, Thermodynamic solubility in FeSSIF): 340 µg/mL
SMILES: O=C(NO)c1cnc(N2C[C@@H]3[C@H](C2)[C@H]3NCc2ccc3cc(F)ccc3n2)nc1 [Mesylate Form 1, N-hydroxy 2-{6-[(6-fluoro-quinolin-2-ylmethyl)-amino]-3-aza-bicyclo[3.1.0]hex-3-yl}pyrimidine-5-carboxamide]
XRPD post-GVS ([2]; residue after GVS): no change; also recorded: XRPD remains unchanged
Solid form by XRPD after static storage [3, 6]: unchanged; also recorded: No change, Mesylate Form 1
Solid form by XRPD after static storage [3, 7]: unchanged; also recorded: No change, Mesylate Form 1

Source: US12012396B2, “HDAC inhibitor solid state forms” (Viracta Subsidiary, Inc., priority 2020, dated 2024)
